Results taken from US8629149B2, “Oxopiperazine derivatives for the treatment of pain and epilepsy” (Zalicus Pharmaceuticals Ltd., priority 2009, dated 2014).

Assays:
mice = assay: Mouse rotarod assay; type: in vivo
Method: (§1) To assess a compound's undesirable side effects (toxicity), animals were monitored for overt signs of impaired neurological or muscular function. In mice, the rotarod procedure (Dunham and Miya, J. Am. Pharmacol. Assoc. 46:208-209 (1957)) is used to disclose minimal muscular or neurological impairment (MMI). When a mouse is placed on a rod that rotates at a speed of 6 rpm, the animal can maintain its equilibrium for long periods of time. The animal is considered toxic if it falls off this rotating rod three times during a […].

[1] = tested on: Lamina I/II spinal cord neurons; assay: Lamina assay: current-clamp recordings on lamina I/II spinal cord neurons; type: cell-based, rat; conditions: lamina I and II neurons
From the text: Male Wistar rats (P6 to P9 for voltage-clamp and P15 to P18 for current-clamp recordings) were anaesthetized through intraperitoneal injection of Inactin (Sigma). The spinal cord was then rapidly dissected out and placed in an ice-cold solution protective sucrose solution containing (in mM): 50 sucrose, 92 NaCl, 15 D-Glucose, 26 NaHCO3, 5 KCl, 1.25 NaH2PO4, 0.5 CaCl2, 7 MgSO4, 1 kynurenic acid, and bubbled with 5% CO2/95% O2. The meninges, dura, and dorsal and ventral roots were then removed from the lumbar region of the spinal cord under a dissecting microscope. The “cleaned” lumbar region of the spinal cord was glued to the vibratome stage and immediately immersed in ice cold, bubbled, sucrose solution. For current-clamp recordings, 300 to 350 μm parasagittal slices were cut to preserve the dendritic arbour of lamina I neurons, while 350 to 400 μm transverse slices were prepared for voltage-clamped Nav channel recordings. Slices were allowed to recover for 1 hour at 35° C. in Ringer solution containing (in mM): 125 NaCl, 20 D-Glucose, 26 NaHCO3, 3 KCl, 1.25 NaH2PO4, 2 CaCl2, 1 MgCl2, 1 kynurenic acid, 0.1 picrotoxin, bubbled with 5% CO2/95% O2. The slice recovery chamber was then returned to room temperature (20 to 22° C.) and all recordings were performed at this temperature. […]

human Nav1.5 channel = target: T1, human Nav1.5 channel (Homo sapiens, UniProt Q14524); assay: Nav1.5 sodium channel screening assay (PatchXpress, cardiac action potential waveform); type: cell-based
T1 construct: expressed in transfected cells; host or cells: HEK cells
Method: Inhibition of the TTX-resistant Nav1.5 sodium channel, a key cardiac ion channel, can have profound effects on the duration and amplitude of the cardiac action potential and can result in arrhythmias and other heart malfunctions. To assess the potential cardiac liability of compounds at an early stage in the drug discovery process, a Nav1.5 sodium channel screening assay is performed on Molecular Device's PatchXpress™ automated electrophysiology platform. Under voltage-calmp conditions, Nav1.5 currents are recorded from HEK cells expressing the human Nav1.5 channel in the absence and presence of increasing concentrations of the test compound to obtain an IC50 value. The external recording solution contained (in mM): 90 TEACl, 50 NaCl, 1.8 CaCl, 1 MgCl2, 10 HEPES, 10 glucose, adjusted to pH 7.4 with TEA-OH and to 300 mOsm with sucrose (if necessary), while the internal patch pipette solution contained (in mM): 129 CsF, 2 MgCl2, 11 EGTA, 10 HEPES, 3 Na2ATP adjusted to pH 7.2 with CsOH and to 290 mOsm with sucrose (if necessary). Nav1.5 channel currents were evoked using a cardiac action potential waveform at 1 Hz, digitized at 31.25 kHz and low-pass filtered at 12 kHz.

[2] = Rat Early Pharmacokinetic (EPK) study; type: in vivo; conditions: 3 mg/kg PO, PG (propylene glycol)
Method: Male Sprague-Dawley rats were dosed via oral (PO) gavage in the detailed formulation. Blood samples were collected from the animals at 6 timepoints out to 4 hours post-dose. Pharmacokinetic analysis was performed on the LC-MS/MS measured concentrations for each timepoint of each compound.

Mouse rotarod assay = type: in vivo; conditions: mouse, in vivo, mice
Method: as §1

T1 sequence (Q14524 whole entry): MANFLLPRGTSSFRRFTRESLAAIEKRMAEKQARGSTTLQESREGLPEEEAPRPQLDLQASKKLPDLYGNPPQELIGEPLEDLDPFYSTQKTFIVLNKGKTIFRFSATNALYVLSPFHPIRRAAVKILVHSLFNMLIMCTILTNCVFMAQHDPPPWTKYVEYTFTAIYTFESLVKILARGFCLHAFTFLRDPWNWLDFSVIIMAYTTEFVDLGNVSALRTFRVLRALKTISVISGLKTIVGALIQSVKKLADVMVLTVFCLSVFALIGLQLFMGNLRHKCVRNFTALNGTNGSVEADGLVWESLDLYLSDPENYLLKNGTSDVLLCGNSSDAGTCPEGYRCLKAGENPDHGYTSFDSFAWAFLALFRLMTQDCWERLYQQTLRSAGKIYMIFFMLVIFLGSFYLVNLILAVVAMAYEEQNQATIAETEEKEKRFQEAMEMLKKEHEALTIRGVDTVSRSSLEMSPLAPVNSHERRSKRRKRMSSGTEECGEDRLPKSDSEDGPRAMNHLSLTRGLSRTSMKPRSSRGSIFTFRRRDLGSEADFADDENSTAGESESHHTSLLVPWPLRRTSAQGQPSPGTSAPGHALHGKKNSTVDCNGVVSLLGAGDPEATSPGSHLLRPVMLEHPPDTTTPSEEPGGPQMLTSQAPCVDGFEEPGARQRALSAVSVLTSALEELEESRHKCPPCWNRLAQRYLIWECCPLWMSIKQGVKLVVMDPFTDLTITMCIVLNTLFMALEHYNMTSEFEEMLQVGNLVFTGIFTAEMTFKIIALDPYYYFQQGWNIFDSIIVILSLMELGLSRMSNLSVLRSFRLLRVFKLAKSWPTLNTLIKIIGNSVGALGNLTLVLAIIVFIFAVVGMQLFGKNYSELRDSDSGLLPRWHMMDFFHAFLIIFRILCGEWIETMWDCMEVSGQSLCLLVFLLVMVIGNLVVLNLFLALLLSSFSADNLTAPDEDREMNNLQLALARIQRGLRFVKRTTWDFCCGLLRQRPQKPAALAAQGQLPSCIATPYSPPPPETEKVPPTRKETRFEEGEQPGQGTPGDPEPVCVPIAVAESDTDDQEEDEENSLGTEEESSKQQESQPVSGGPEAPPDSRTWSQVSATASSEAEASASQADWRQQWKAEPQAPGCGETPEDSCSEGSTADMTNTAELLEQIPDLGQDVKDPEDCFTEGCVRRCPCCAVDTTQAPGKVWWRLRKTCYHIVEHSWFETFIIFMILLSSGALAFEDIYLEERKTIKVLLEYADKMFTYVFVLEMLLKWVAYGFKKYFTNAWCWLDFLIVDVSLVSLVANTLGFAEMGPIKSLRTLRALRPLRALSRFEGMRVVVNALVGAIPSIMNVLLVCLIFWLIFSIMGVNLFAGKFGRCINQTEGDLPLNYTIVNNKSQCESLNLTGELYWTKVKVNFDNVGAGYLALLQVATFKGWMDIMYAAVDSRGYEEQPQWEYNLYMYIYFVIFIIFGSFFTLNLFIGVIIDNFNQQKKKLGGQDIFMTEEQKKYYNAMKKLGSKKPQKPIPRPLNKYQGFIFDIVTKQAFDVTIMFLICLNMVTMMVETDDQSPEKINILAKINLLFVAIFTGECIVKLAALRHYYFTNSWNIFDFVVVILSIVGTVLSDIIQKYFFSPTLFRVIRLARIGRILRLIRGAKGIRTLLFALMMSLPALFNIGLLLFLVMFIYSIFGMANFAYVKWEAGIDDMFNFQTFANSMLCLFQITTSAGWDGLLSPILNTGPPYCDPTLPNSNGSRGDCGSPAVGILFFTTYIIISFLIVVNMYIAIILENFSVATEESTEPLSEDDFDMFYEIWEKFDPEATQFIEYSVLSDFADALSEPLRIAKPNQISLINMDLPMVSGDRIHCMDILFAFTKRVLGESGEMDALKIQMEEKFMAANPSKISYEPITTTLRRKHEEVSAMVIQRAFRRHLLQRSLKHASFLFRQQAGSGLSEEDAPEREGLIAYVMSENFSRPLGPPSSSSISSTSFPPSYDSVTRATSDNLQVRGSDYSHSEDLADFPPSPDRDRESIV

| SMILES | % Impaired (mice; 0.25 hr) | % Impaired (mice; 0.5 hr) | % Impaired (mice; 1 hr) | % Impaired (mice; 2 hr) | % Impaired (mice; 4 hr) | % Spike Change (Mean; % change from control) [1] | Inhibition of the cardiac Nav 1.5 channel (statement) (human Nav1.5 channel; HEK cells expressing human Nav1.5) | IC50 (human Nav1.5 channel; cardiac action potential waveform at 1 Hz, read-out: HNAV 1.5 CARDIAC AP 1 Hz IC50) | Dose Normalized AUC [2] | Dose Normalized Cmax [2] | Tmax ([2]; male, Sprague-Dawley, blood) | TD50 (Mouse rotarod assay) |
| --- | --- | --- | --- | --- | --- | --- | --- | --- | --- | --- | --- | --- |
| O=C1CN(C(=O)CC(c2ccc(Cl)cc2)c2ccc(Cl)cc2)CCN1 [Compound 3, 4-(3,3-bis(4-chlorophenyl)propanoyl)piperazin-2-one] | 0% | 0% | 0% | 0% | 0% | 28.7% |  |  |  |  |  |  |
| O=C1CN(C(=O)CC(c2ccccc2)c2ccccc2)CCN1 [Compound 4, 4-(3,3-diphenylpropanoyl)piperazin-2-one] | 0% | 0% | 0% | 0% | 0% | −5.3% | did not act as inhibitors | ≥ 300 µM | 522 nM·h | 832 nM | 15 min | 370 mg/kg |
